Reference: ChEMBL document CHEMBL1201862, “PubChem BioAssay data set” (2004)
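All cell lines were grown in 96-well plates and treated with compound for 48 hours. GI50 is the concentration that inhibits growth by half.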 Calls of active or inactive are those of the source. Rule as the data show it: active = GI50 up to about 1.1 µM and inactive = higher.

Columns and labels:
Assay in all cases: NCI-60 cell line screen, 48 h
[1] = system: OVCAR-8
[2] = system: RPMI-8226
[3] = system: SF-539
[4] = system: LXFL 529
[5] = system: KM12
[6] = system: U-251
[7] = system: SF-268
[8] = system: UACC-257
[9] = system: HOP-92
[10] = system: RXF 631
[11] = system: SR
[12] = system: SK-MEL-5
[13] = system: HOP-62
[14] = system: NCI-H460
[15] = system: NCI-H226
[16] = system: SF-295
[17] = system: NCI-H522
[18] = system: HCC 2998
[19] = system: UO-31
[20] = system: IGROV-1
[21] = system: KM-20L2
[22] = system: Malme-3M
[23] = system: DMS-114
[24] = system: 786-0
[25] = system: RXF 393
[26] = system: HL-60
[27] = system: HT-29
[28] = system: SW-620
[29] = system: M19-MEL
[30] = system: EKVX
[31] = system: DMS-273
[32] = system: A549
[33] = system: K562
[34] = system: CCRF-CEM
[35] = system: ACHN
[36] = system: OVCAR-4
[37] = system: HCT-116
[38] = system: SK-MEL-28
[39] = system: SK-MEL-2
[40] = system: LOX IMVI
[41] = system: MOLT-4
[42] = system: OVCAR-3
[43] = system: HOP-18
[44] = system: COLO 205
[45] = system: TK-10
[46] = system: M14
[47] = system: SN12C
[48] = system: XF498
[49] = system: SNB-19
[50] = system: SNB-75
[51] = system: OVCAR-5
[52] = system: NCI-H23
[53] = system: HCT-15
[54] = system: DLD-1
[55] = system: UACC-62
[56] = system: SK-OV-3
[57] = system: SNB-78
[58] = system: A498
[59] = system: CAKI-1

Measured: GI50

CCOC(=O)C1(C(=O)OCC)C(C(C)(C)C)=C(C)c2ccccc21
13.7 µM: [53]
inactive: [1] 20.6 µM | [2] 7.89 µM | [3] 18.2 µM | [4] 11.6 µM | [5] 12.6 µM | [6] 15.3 µM | [7] 16.8 µM | [8] 12.2 µM | [9] 3.4 µM | [10] 13.7 µM | [11] 39.1 µM | [12] 9.59 µM | [13] 20.3 µM | [14] 11.9 µM | [15] 14.5 µM | [16] 11.7 µM | [17] 10.1 µM | [18] 16 µM | [19] 15.4 µM | [20] 14.5 µM | [21] 13.5 µM | [22] 11.4 µM | [23] 11.5 µM | [24] 15.8 µM | [25] 13.5 µM | [26] 9.93 µM | [27] 10.9 µM | [28] 15.3 µM | [29] 14.1 µM | [30] 20.1 µM | [31] 12.1 µM | [32] 18.1 µM | [33] 8.55 µM | [34] 13.1 µM | [35] 13.2 µM | [36] 14.9 µM | [37] 6.75 µM | [38] 12.5 µM | [39] 18.5 µM | [40] 12.3 µM | [41] 29.9 µM | [42] 11.9 µM | [43] 29.1 µM | [44] 13.3 µM | [45] 30.1 µM | [46] 16.1 µM | [47] 15.3 µM | [48] 12.6 µM | [49] 19.9 µM | [50] 19.3 µM | [51] 14.4 µM | [52] 10.2 µM | [54] 11.8 µM | [55] 12.9 µM | [56] 24.2 µM

CN(C(=O)C12C3C4C1C1C2C3C41I)C(C)(C)C (stereo not drawn)
inactive: [1] > 100 µM | [2] > 100 µM | [3] > 100 µM | [57] > 100 µM | [4] > 87.1 µM | [5] > 100 µM | [6] > 91.2 µM | [7] > 100 µM | [8] > 88.5 µM | [10] 53.2 µM | [11] > 29.4 µM | [58] 53.8 µM | [12] > 63.1 µM | [13] > 100 µM | [14] > 100 µM | [15] > 51.5 µM | [16] > 100 µM | [17] 48 µM | [18] > 60 µM | [19] > 67.1 µM | [20] > 90.8 µM | [21] > 89.3 µM | [22] > 95.9 µM | [23] > 59 µM | [24] > 100 µM | [26] 33 µM | [27] > 95.1 µM | [28] > 100 µM | [29] > 100 µM | [30] 64.9 µM | [31] 47 µM | [32] > 100 µM | [35] 98.9 µM | [36] > 100 µM | [37] 70.1 µM | [38] > 100 µM | [39] > 100 µM | [40] > 100 µM | [42] 70.1 µM | [43] > 100 µM | [44] > 87.1 µM | [45] > 57.4 µM | [46] > 100 µM | [59] > 100 µM | [47] > 100 µM | [48] > 61.9 µM | [49] > 100 µM | [50] > 65.6 µM | [51] > 100 µM | [52] > 96.6 µM | [54] > 100 µM | [55] > 83 µM | [56] > 100 µM
63.1 µM: [53]

CCOC(=O)/C(C(C)=O)=C1/N[C@H](C(=O)OCC)CS1
inactive: [1] > 100 µM | [2] > 100 µM | [3] 10 µM | [57] > 100 µM | [4] > 100 µM | [5] > 100 µM | [6] > 100 µM | [7] > 100 µM | [8] > 100 µM | [10] > 100 µM | [11] > 100 µM | [12] > 100 µM | [13] > 100 µM | [14] > 100 µM | [15] > 100 µM | [16] > 100 µM | [17] > 100 µM | [18] > 100 µM | [19] > 100 µM | [20] > 100 µM | [21] > 100 µM | [22] > 100 µM | [24] > 100 µM | [25] > 100 µM | [26] > 100 µM | [27] > 100 µM | [28] > 100 µM | [29] > 100 µM | [30] > 100 µM | [32] > 100 µM | [33] > 100 µM | [34] > 100 µM | [35] > 100 µM | [36] > 100 µM | [37] > 100 µM | [38] > 100 µM | [39] > 100 µM | [40] > 100 µM | [41] > 100 µM | [42] > 100 µM | [43] > 100 µM | [44] > 100 µM | [46] > 100 µM | [59] > 100 µM | [47] > 100 µM | [48] > 100 µM | [49] > 100 µM | [50] > 100 µM | [51] > 100 µM | [52] > 100 µM | [54] > 100 µM | [55] > 100 µM
> 100 µM: [53]
